What was measured:
[1] = tested on: Circulating Tumour Cells (CTCs, EpCam+CD45−) from a patient with stage II synovial sarcoma; assay: Drug response score assay (RealTime-Glo MT / CellTox Green, PCL scaffold) on CTCs from blood, Example 1; type: cell-based, human; parameters: key to Drug response score, conc. 1 / Drug response score, conc. 2 / Drug response score, conc. 3 / Drug response score, conc. 4: normalized drug response metric per Gupta et al. 2020; conditions: for Drug response score, conc. 1: conc. 1: Doxo 10 ng/ml, Ifos 0.125 μg/ml, Gemcit 2 μg/ml, Doce 0.02 μg/ml, Carbo 2 μg/ml, Dacarb 1.5 μg/ml, re-dosed at 48 h; for Drug response score, conc. 1 / Drug response score, conc. 2 / Drug response score, conc. 3 / Drug response score, conc. 4: CTCs, t96h; for Drug response score, conc. 2: conc. 2: Doxo 30 ng/ml, Ifos 0.25 μg/ml, Gemcit 10 μg/ml, Doce 0.2 μg/ml, Carbo 5 μg/ml, Dacarb 3 μg/ml; for Drug response score, conc. 3: conc. 3: Doxo 90 ng/ml, Ifos 5 μg/ml, Gemcit 20 μg/ml, Doce 2 μg/ml, Carbo 10 μg/ml, Dacarb 6 μg/ml; for Drug response score, conc. 4: conc. 4: Doxo 270 ng/ml, Ifos 10 μg/ml, Gemcit 40 μg/ml, Doce 10 μg/ml, Carbo 20 μg/ml, Dacarb 12 μg/ml; for Drug sensitivity as calculated by the assay (interpretation of Drug Response Scores): Table 5
Protocol: CD45^+ cells and circulating tumour cells (CTCs) were isolated from a blood sample provided by each subject.
CD45 separation was performed by adding human CD45 microbeads (50 μl/ml blood), incubating for 15 minutes at 4° C. and then processing using an AutoMACS machine. This separates the blood sample into CD45^+ and CD45^−cells in 2 separate falcons. The falcon tubes are then centrifuged at 1200 rpm for 5 minutes.
The supernatant was removed from the CD45^−falcon tube, and the CD45^−cells contacted with 100 μl of FcR block and 100 μl of CD326 (EpCAM) MicroBeads, followed by incubation at […] 4° C. for 30 minutes. The CD45^−cells were then processed using an AutoMACS machine to separate the EpCAM positive and negative cells into 2 separate falcon tubes. The EpCAM-cells were discarded. The supernatant was removed from the EpCAM^+ cells, and the cells resuspended in DMEM with 2 μl Cell Tox, 2 μl MT and 2 μl MT. 20 μl of the resuspended pellet was then added to all sample wells excluding a blank. After all wells are added to, a cell count was conducted on the […] to determine the number of circulating tumour cells (CTCs).
The different cell types were each divided equally into populations, depending on the number of drugs/concentrations to be tested and plated on a cell-culture plate pre-coated with a scaffold of polycaprolactone (PCL) electrospun fibres and incubated at 37° C., 5% CO2, for 5 to (typically 10) minutes to facilitate cell attachment. After attachment, an initial imaging step was carried out using the RealTime-Glo™ MT assay from Promega (Catalogue No. G9711)) and the CellTox™ Green Cytotoxicity Assay (Promega, Catalogue No. G8741), carried out according to manufacturer's instructions. Following this initial imagining, the immunotherapeutic and/or chemotherapeutic agents were added to the cell populations as indicated below. After 10 minutes, the imagining step was repeated. The cell populations were then incubated at 37° C., 5% CO2 for 48 hours. The imaging step was then repeated. The cell populations were then re-dosed with the same immunotherapeutic and/or chemotherapeutic agents as indicated below, and incubated at 37° C., 5% CO2 for a further 48 hours. After this second 48 hour incubation, the imagining step was repeated for a final time.
At the end of this culture period, dose response scores were calculated using a normalized drug response metric as described in Gupta et al. (Communications Biology volume 3, Article number: 42 (2020), https://doi.org/10.1038/s42003-020-0765-z). The start readout for a given immunotherapeutic or chemotherapeutic agent at a given concentration was the to readout for said immunotherapeutic or chemotherapeutic agent at a specified concentration. The end readout for a given immunotherapeutic or chemotherapeutic agent at a given concentration was the final timepoint reading (t96h) for said immunotherapeutic or chemotherapeutic agent at a specified concentration.
The positive control start readout for a given drug/concentration was the to readout for the corresponding drug at a specified concentration. The positive control end readout for the corresponding drug at a specified concentration was the final timepoint reading (t96h) for the corresponding blank well.
The negative control start and end readouts for a given immunotherapeutic or chemotherapeutic agent at a given concentration were the to and final timepoint reading (t96h) respectively for blank cell or blank immuno cell well respectively.
The sensitivity or resistance of a subject's cancer to a given immunotherapeutic or chemotherapeutic agent was determined based on the calculated drug response score as shown in Table 2.
Blood samples from a patient with stage II synovial sarcoma (suspected spindle cell tumour) were received and tested using a 6 drug panel.
Chemotherapeutic agents were tested as in Table 3.

[2] = tested on: Circulating Tumour Cells (CTCs) from a patient with colon cancer (sigmoid colon cancer); assay: Drug response score assay on CTCs from blood, Example 8; type: cell-based, human; parameters: key to Drug response score, conc. 1 / Drug response score, conc. 2 / Drug response score, conc. 3 / Drug response score, conc. 4: normalized drug response metric (Gupta et al. 2020); conditions: for Drug response score, conc. 1: conc. 1 of each drug as in Table 24; for Drug response score, conc. 1 / Drug response score, conc. 2 / Drug response score, conc. 3 / Drug response score, conc. 4: CTCs, t96h; for Drug response score, conc. 2: conc. 2 of each drug as in Table 24; for Drug response score, conc. 3: conc. 3 of each drug as in Table 24; for Drug sensitivity as calculated by the assay (interpretation of Drug Response Scores): sigmoid colon cancer CTCs, Table 26; for Drug response score, conc. 4: conc. 4 of each drug as in Table 24
Summary of the method: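 EpCAM+ CTCs isolated from patient blood by CD45 depletion then EpCAM bead selection, and imaged with RealTime-Glo MT viability and CellTox Green cytotoxicity reagents. Agents added, cells cultured at 37° C, 5% CO2 for 48 h, re-dosed, then a further 48 h. Score calculated by normalized drug response metric from t0 and t96h readouts against blank-well controls.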

SMILES | Drug response score, conc. 1 [1] | Drug response score, conc. 2 [1] | Drug response score, conc. 3 [1] | Drug response score, conc. 4 [1] | Drug sensitivity as calculated by the assay (interpretation of Drug Response Scores) ([1]; synovial sarcoma CTCs) | effectiveness on Circulating Tumour Cells under laboratory conditions ([1]; synovial sarcoma CTCs) | Drug response score, conc. 1 [2] | Drug response score, conc. 2 [2] | Drug response score, conc. 3 [2] | Drug sensitivity as calculated by the assay (interpretation of Drug Response Scores) [2] | Drug response score, conc. 4 [2]
CC(=O)O[C@@]12CO[C@@H]1C[C@H](O)[C@@]1(C)C(=O)[C@H](O)C3=C(C)[C@@H](OC(=O)[C@H](O)[C@@H](NC(=O)OC(C)(C)C)c4ccccc4)C[C@@](O)([C@@H](OC(=O)c4ccccc4)[C@H]21)C3(C)C [Docetaxel] | 0.8633 | 0.7451 | 0.6992 | 0.4852 | Sensitive (S+) |  |  |  |  |  | 
COc1cccc2c1C(=O)c1c(O)c3c(c(O)c1C2=O)C[C@@](O)(C(=O)CO)C[C@@H]3O[C@H]1C[C@H](N)[C@H](O)[C@H](C)O1 [Doxorubicin] | 0.9432 | 0.7234 | 0.8842 | 0.8405 | Sensitive (S+) | marginally less effective compared to other drugs | −0.0102 | −0.0852 | −0.2828 | Sensitive (S++) | 
COc1cc([C@@H]2c3cc4c(cc3[C@@H](O[C@@H]3O[C@@H]5CO[C@@H](C)O[C@H]5[C@H](O)[C@H]3O)[C@H]3COC(=O)[C@H]23)OCO4)cc(OC)c1O [Etoposide] |  |  |  |  |  |  | −0.4099 | −0.6338 | −0.6648 | Sensitive (S++) | 0.1129
O=P1(NCCCl)OCCCN1CCCl (stereo not drawn) [Ifosfamide] | 0.7534 | 0.6369 | 0.7555 | 0.5976 | Sensitive (S+) |  |  |  |  |  | 
CC(=O)O[C@H]1C(=O)[C@@]2(C)[C@H]([C@H](OC(=O)c3ccccc3)[C@]3(O)C[C@H](OC(=O)[C@H](O)[C@@H](NC(=O)c4ccccc4)c4ccccc4)C(C)=C1C3(C)C)[C@]1(OC(C)=O)CO[C@@H]1C[C@@H]2O [Paclitaxel] |  |  |  |  |  |  | −0.8976 | −0.1500 | −0.5818 | Sensitive (S++) | −0.8009

From patent US20250290915A1, “METHOD FOR PREDICTING RESPONSIVENESS TO THERAPY” (CANCERTAIN LIMITED, priority 2022, published 2025)
